Data taken from patent US11498923B2 (Merck Sharp & Dohme Corp., priority 2017, dated 2022).
Like-named read-outs stand apart in the source and are kept apart here.

Target: T1, human A2a receptor (Homo sapiens, UniProt P29274)
T1 construct: purchased Perkin-Elmer RBHA2AM400UA; host or cells: HEK293 cells, used as a membrane preparation
Test: A2a receptor competition binding assay (Scintillation Proximity)
Details: membranes from HEK293 cells expressing human A2a receptor, 0.5 nM tritiated ligand, Cheng-Prusoff
In short: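 Ki values were obtained with the Cheng-Prusoff equation from competition curves against 0.5 nM tritiated antagonist, scintillation proximity counting after 1 h room-temperature incubation. Receptor came from HEK293 membranes pretreated with adenosine deaminase; compound final range 3000–0.15 nM, buffer Ca/Mg-free PBS with 10 mM MgCl2.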

T1 sequence (P29274 whole entry): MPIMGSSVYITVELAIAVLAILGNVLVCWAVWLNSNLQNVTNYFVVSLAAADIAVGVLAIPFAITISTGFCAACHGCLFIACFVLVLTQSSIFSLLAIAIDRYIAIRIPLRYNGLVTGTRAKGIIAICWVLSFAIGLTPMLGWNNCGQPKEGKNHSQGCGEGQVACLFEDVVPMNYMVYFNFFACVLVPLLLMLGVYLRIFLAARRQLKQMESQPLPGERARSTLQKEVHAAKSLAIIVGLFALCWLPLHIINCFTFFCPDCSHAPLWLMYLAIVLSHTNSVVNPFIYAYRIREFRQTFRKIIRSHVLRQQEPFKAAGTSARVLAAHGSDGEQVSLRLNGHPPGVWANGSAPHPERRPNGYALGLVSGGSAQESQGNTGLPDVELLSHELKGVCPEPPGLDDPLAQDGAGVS

Compound | Ki (read-out: A2a Ki) [nM] | Ki (A2a Ki) [nM]
COc1cccc2c1nc(N)n1cc(C(=O)N3CCC4(CC3)CC4)nc21 [Ex-201, (5-amino-7-methoxyimidazo[1,2-c]quinazolin-2-yl)(6-azaspiro[2.5]octan-6-yl)methanone] | 14 | 
COc1cccc2c1nc(N)n1cc(C(=O)N3CCC4(CCCC4)CC3)nc21 [Ex-202, (5-amino-7-methoxyimidazo[1,2-c]quinazolin-2-yl)(8-azaspiro[4.5]decan-8-yl)methanone] | 5.2 | 
COc1cccc2c1nc(N)n1cc(C(=O)N3CCCC4(COC4)C3)nc21 [Ex-203, (5-amino-7-methoxyimidazo[1,2-c]quinazolin-2-yl)(2-oxa-6-azaspiro[3.5]nonan-6-yl)methanone] | 11 | 
COc1cccc2c1nc(N)n1cc(C(=O)N3CCCC4(CCCCO4)C3)nc21 (stereo not drawn) [Ex-204, (5-amino-7-methoxyimidazo[1,2-c]quinazolin-2-yl)(1-oxa-8-azaspiro[5.5]undecan-8-yl)methanone] | 12 | 
COc1cccc2c1nc(N)n1cc(C(=O)N3CCCC4(CCCO4)C3)nc21 (stereo not drawn) [Ex-205, (5-amino-7-methoxyimidazo[1,2-c]quinazolin-2-yl)(1-oxa-7-azaspiro[4.5]decan-7-yl)methanone] | 13 | 
COc1cccc2c1nc(N)n1cc(C(=O)N3CCC4(CC3)COC4)nc21 [Ex-206, (5-amino-7-methoxyimidazo[1,2-c]quinazolin-2-yl)(2-oxa-7-azaspiro[3.5]nonan-7-yl)methanone] | 110 | 
COc1cccc2c1nc(N)n1cc(C(=O)N3CCC(C)(C)CC3)nc21 [Ex-207, (5-amino-7-methoxyimidazo[1,2-c]quinazolin-2-yl)(4,4-dimethylpiperidin-1-yl)methanone] | 2.1 | 
COc1cccc2c1nc(N)n1cc(C(=O)N3C4CCCC3CC4)nc21 [Ex-208, (5-amino-7-methoxyimidazo[1,2-c]quinazolin-2-yl)(8-azabicyclo[3.2.1]octan-8-yl)methanone] |  | 3.2
COc1cccc2c1nc(N)n1cc(C(=O)N3CCCC3C(C)C)nc21 (stereo not drawn) [Ex-209, (5-amino-7-methoxyimidazo[1,2-c]quinazolin-2-yl)(2-isopropylpyrrolidin-1-yl)methanone] | 2.9 | 
COc1cccc2c1nc(N)n1cc(C(=O)N3C(C)CCC3C)nc21 (stereo not drawn) [Ex-210, (5-amino-7-methoxyimidazo[1,2-c]quinazolin-2-yl)(2,5-dimethylpyrrolidin-1-yl)methanone] | 6.1 | 
COc1cccc2c1nc(N)n1cc(C(=O)N3CCC[C@H]3C(F)(F)F)nc21 [Ex-211, (S)-(5-amino-7-methoxyimidazo[1,2-c]quinazolin-2-yl)(2-(trifluoromethyl)pyrrolidin-1-yl)methanone] | 14 | 
COc1cccc2c1nc(N)n1cc(C(=O)N3CC[C@H](OC)C3)nc21 [Ex-212, (S)-(5-amino-7-methoxyimidazo[1,2-c]quinazolin-2-yl)(3-methoxypyrrolidin-1-yl)methanone] | 5.5 | 
COc1cccc2c1nc(N)n1cc(C(=O)N3CC[C@@H](OC)C3)nc21 [Ex-213, (R)-(5-amino-7-methoxyimidazo[1,2-c]quinazolin-2-yl)(3-methoxypyrrolidin-1-yl)methanone] | 10 | 
COc1cccc2c1nc(N)n1cc(C(=O)N3CC[C@@H](CF)C3)nc21 [Ex-214, (R)-(5-amino-7-methoxyimidazo[1,2-c]quinazolin-2-yl)(3-(fluoromethyl)pyrrolidin-1-yl)methanone] | 11 | 
COc1cccc2c1nc(N)n1cc(C(=O)N3CC[C@H](F)C3)nc21 [Ex-215, (S)-(5-amino-7-methoxyimidazo[1,2-c]quinazolin-2-yl)(3-fluoropyrrolidin-1-yl)methanone] | 7.4 | 
COc1cccc2c1nc(N)n1cc(C(=O)N3CCC[C@@H]3C)nc21 [Ex-216, (S)-(5-amino-7-methoxyimidazo[1,2-c]quinazolin-2-yl)(2-methylpyrrolidin-1-yl)methanone] | 10 | 
COc1cccc2c1nc(N)n1cc(C(=O)N3CCC[C@@H]3C(F)(F)F)nc21 [Ex-217, (R)-(5-amino-7-methoxyimidazo[1,2-c]quinazolin-2-yl)(2-(trifluoromethyl)pyrrolidin-1-yl)methanone] | 7.8 | 
COc1cccc2c1nc(N)n1cc(C(=O)N3C4CCC3CC4)nc21 [Ex-218, (5-amino-7-methoxyimidazo[1,2-c]quinazolin-2-yl)((1s,4s)-7-azabicyclo[2.2.1]heptan-7-yl)methanone] |  | 6.1
COc1cccc2c1nc(N)n1cc(C(=O)N3CCC[C@H]3CF)nc21 [Ex-219, (S)-(5-amino-7-methoxyimidazo[1,2-c]quinazolin-2-yl)(2-(fluoromethyl)pyrrolidin-1-yl)methanone] | 3.6 | 
COc1cccc2c1nc(N)n1cc(C(=O)N3CCC4OCCC43)nc21 (stereo not drawn) [Ex-220, (5-amino-7-methoxyimidazo[1,2-c]quinazolin-2-yl)(hexahydro-4H-furo[3,2-b]pyrrol-4-yl)methanone] | 24 | 

Compound | Ki (read-out: A2a Ki) [nM] | Ki (A2a Ki) [nM]
COc1cccc2c1nc(N)n1cc(C(=O)N3CCC(F)(F)C3)nc21 [Ex-221, (5-amino-7-methoxyimidazo[1,2-c]quinazolin-2-yl)(3,3-difluoropyrrolidin-1-yl)methanone] | 6.6 | 
COc1cccc2c1nc(N)n1cc(C(=O)N3CCC4(CCCC4)C3)nc21 [Ex-222, (5-amino-7-methoxyimidazo[1,2-c]quinazolin-2-yl)(2-azaspiro[4.4]nonan-2-yl)methanone] | 11 | 
COc1cccc2c1nc(N)n1cc(C(=O)N3CC(C)(C)OC(C)(C)C3)nc21 [Ex-223, (5-amino-7-methoxyimidazo[1,2-c]quinazolin-2-yl)(2,2,6,6-tetramethylmorpholino) methanone] | 210 | 
COc1cccc2c1nc(N)n1cc(C(=O)N3C4CCC3COC4)nc21 [Ex-224, (5-amino-7-methoxyimidazo[1,2-c]quinazolin-2-yl)(3-oxa-8-azabicyclo[3.2.1]octan-8-yl)methanone] |  | 8.2
COc1cccc2c1nc(N)n1cc(C(=O)N3C[C@@H]4C[C@H]3CO4)nc21 [Ex-225, (5-amino-7-methoxyimidazo[1,2-c]quinazolin-2-yl)((1S,4S)-2-oxa-5-azabicyclo[2.2.1]heptan-5-yl)methanone] | 35 | 
COC(=O)C1CCN(C(=O)c2cn3c(N)nc4c(OC)cccc4c3n2)CC1 [Ex-226, methyl 1-(5-amino-7-methoxyimidazo[1,2-c]quinazoline-2-carbonyl]piperidine-4-carboxylate] | 29 | 
COc1cccc2c1nc(N)n1cc(C(=O)N3CCC4(CCC(=O)O4)CC3)nc21 [Ex-227, 8-(5-amino-7-methoxyimidazo[1,2-c]quinazoline-2-carbonyl)-1-oxa-8-azaspiro[4.5]decan-2-one] | 240 | 
COc1cccc2c1nc(N)n1cc(C(=O)N3CCC4(CCOC4=O)CC3)nc21 [Ex-228, 8-(5-amino-7-methoxyimidazo[1,2-c]quinazoline-2-carbonyl)-2-oxa-8-azaspiro[4.5]decan-1-one] | 180 | 
COc1cccc2c1nc(N)n1cc(C(=O)N3CCCC4(C3)CC(C)(C)OC4=O)nc21 (stereo not drawn) [Ex-229, 7-(5-amino-7-methoxyimidazo[1,2-c]quinazoline-2-carbonyl)-3,3-dimethyl-2-oxa-7-azaspiro[4.5]decan-1-one] | 15 | 
COc1cccc2c1nc(N)n1cc(C(=O)N3CCC4(CCCO4)CC3)nc21 [Ex-230, (5-amino-7-methoxyimidazo[1,2-c]quinazolin-2-yl)(1-oxa-8-azaspiro[4.5]decan-8-yl)methanone] | 61.1 | 
COc1cccc2c1nc(N)n1cc(C(=O)N3CCCC4(C3)OCCO4)nc21 [Ex-231, (5-amino-7-methoxyimidazo[1,2-c]quinazolin-2-yl)(1,4-dioxa-7-azaspiro[4.5]decan-7-yl)methanone] | 10 | 
COc1cccc2c1nc(N)n1cc(C(=O)N3CCCC(OC)(OC)C3)nc21 [Ex-232, (5-amino-7-methoxyimidazo[1,2-c]quinazolin-2-yl)(3,3-dimethoxypiperidin-1-yl)methanone] | 18 | 
COc1cccc2c1nc(N)n1cc(C(=O)N3CCCC4(CCOC4=O)C3)nc21 (stereo not drawn) [Ex-233, 7-(5-amino-7-methoxyimidazo[1,2-c]quinazoline-2-carbonyl)-2-oxa-7-azaspiro[4.5]decan-1-one] | 10 | 
COc1cccc2c1nc(N)n1cc(C(=O)N3CCC4(CC3)OCCC4(C)C)nc21 [Ex-234, (5-amino-7-methoxyimidazo[1,2-c]quinazolin-2-yl)(4,4-dimethyl-1-oxa-8-azaspiro[4.5]decan-8-yl)methanone] | 2.6 | 
COc1cccc2c1nc(N)n1cc(C(=O)N3CC4CC4C3)nc21 (stereo not drawn) [Ex-235, (5-amino-7-methoxyimidazo[1,2-c]quinazolin-2-yl)(3-azabicyclo[3.1.0]hexan-3-yl)methanone] | 2.8 | 
COc1cccc2c1nc(N)n1cc(C(=O)N3C[C@@H]4[C@@H]5CC[C@@H](C5)[C@@H]4C3)nc21 [Ex-236, (5-amino-7-methoxyimidazo[1,2-c]quinazolin-2-yl)((3aR,4R,7S,7aS)-octahydro-2H-4,7-methanoisoindol-2-yl)methanone] | 6.4 | 
COc1cccc2c1nc(N)n1cc(C(=O)N3CC4CC3CS(=O)(=O)C4)nc21 (stereo not drawn) [Ex-237, (5-amino-7-methoxyimidazo[1,2-c]quinazolin-2-yl)(3,3-dioxido-3-thia-6-azabicyclo[3.2.1]octan-6-yl)methanone] | 37 | 
COc1cccc2c1nc(N)n1cc(C(=O)N3CCC(=O)C3)nc21 [Ex-238, 1-(5-amino-7-methoxyimidazo[1,2-c]quinazoline-2-carbonyl)pyrrolidin-3-one] | 170 | 
COc1cccc2c1nc(N)n1cc(C(=O)N3C[C@@H](C)O[C@H](C)C3)nc21 [Ex-239, (5-amino-7-methoxyimidazo[1,2-c]quinazolin-2-yl)((2R,6R)-2,6-dimethylmorpholino) methanone] | 130 | 
